Experimental data: ChEMBL document CHEMBL1140099, “Identification of BRAF inhibitors through in silico screening” (J Med Chem, 2008)

target: T1, Serine/threonine-protein kinase B-raf (Homo sapiens, UniProt P15056); assay: Inhibition of human cloned wild type BRAF at 50 uM by ELISA-based MEK phosphorylation assay
T1 sequence (P15056 whole entry): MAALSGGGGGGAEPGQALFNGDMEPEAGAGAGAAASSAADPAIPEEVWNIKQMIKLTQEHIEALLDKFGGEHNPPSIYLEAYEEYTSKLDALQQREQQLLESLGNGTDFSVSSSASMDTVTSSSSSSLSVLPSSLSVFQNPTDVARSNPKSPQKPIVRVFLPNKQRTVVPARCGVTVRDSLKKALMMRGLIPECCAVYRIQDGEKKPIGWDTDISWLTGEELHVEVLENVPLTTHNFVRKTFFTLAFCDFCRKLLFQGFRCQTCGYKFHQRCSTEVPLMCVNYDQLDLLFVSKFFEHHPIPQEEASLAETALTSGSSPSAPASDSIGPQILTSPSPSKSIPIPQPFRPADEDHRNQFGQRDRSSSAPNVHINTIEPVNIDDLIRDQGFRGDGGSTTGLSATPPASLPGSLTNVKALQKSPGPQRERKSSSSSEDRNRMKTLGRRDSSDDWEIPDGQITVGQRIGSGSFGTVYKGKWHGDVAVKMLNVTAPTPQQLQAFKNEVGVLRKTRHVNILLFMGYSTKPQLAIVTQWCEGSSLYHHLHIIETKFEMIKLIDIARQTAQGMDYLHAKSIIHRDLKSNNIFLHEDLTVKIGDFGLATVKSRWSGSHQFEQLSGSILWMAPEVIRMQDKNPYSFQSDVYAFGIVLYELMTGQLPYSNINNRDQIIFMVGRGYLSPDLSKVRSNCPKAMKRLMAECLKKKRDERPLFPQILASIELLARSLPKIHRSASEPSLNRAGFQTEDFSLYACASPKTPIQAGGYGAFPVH

| SMILES | inhibition |
| --- | --- |
| Cn1c(=O)[nH]c(=O)c2c1nc(S)n2Cc1ccc(Cl)cc1 | 90% |

target: Phosphatidylinositol 4,5-bisphosphate 3-kinase catalytic subunit gamma isoform (Homo sapiens, UniProt P48736); assay: Inhibition of human recombinant PI3Kgamma catalytic domain
Sequence (P48736 whole entry, the tested form may be a part, canonical isoform): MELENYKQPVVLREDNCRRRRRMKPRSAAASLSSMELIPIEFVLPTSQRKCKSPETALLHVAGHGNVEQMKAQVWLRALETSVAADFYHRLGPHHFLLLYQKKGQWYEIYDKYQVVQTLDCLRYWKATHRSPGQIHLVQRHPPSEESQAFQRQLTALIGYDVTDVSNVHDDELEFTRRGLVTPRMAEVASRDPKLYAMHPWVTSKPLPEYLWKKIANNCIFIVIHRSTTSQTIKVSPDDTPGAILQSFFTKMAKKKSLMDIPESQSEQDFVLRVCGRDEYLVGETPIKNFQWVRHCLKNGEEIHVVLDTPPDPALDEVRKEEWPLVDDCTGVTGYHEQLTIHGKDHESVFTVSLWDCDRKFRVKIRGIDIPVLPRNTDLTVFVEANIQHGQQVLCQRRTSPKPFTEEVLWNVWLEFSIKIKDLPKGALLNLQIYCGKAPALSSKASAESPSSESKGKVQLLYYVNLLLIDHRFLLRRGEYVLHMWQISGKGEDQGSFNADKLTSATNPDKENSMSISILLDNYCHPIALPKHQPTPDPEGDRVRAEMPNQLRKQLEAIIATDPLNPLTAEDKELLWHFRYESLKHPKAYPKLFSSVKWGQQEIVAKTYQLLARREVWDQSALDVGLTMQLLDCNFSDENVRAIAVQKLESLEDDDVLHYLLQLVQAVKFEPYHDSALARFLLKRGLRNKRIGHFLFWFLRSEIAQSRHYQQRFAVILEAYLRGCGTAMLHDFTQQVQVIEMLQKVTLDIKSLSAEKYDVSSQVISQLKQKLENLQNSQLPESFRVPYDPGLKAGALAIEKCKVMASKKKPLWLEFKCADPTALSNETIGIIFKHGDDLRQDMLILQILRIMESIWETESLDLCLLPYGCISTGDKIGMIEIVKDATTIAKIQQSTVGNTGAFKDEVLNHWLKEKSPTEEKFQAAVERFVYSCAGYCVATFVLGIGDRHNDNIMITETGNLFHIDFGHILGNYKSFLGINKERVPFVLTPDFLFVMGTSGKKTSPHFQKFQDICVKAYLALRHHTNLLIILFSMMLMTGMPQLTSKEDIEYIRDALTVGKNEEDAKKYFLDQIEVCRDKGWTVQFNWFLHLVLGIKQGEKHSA

| SMILES | IC50 |
| --- | --- |
| Cn1c(=O)n(Cc2ccccc2)c(=O)c2c1nc(SCCO)n2Cc1ccccc1 | 25 µM |

target: T1, Serine/threonine-protein kinase B-raf
Description: Inhibition of human cloned wild type BRAF by ELISA-based MEK phosphorylation assay

| SMILES | IC50 |
| --- | --- |
| C/C(=N/Nc1nc2c(c(=O)[nH]c(=O)n2C)n1Cc1ccccc1)c1ccccc1 | 11.4 µM |
| COc1cc(C2C(C#N)=C(N)OC3=C2C(=O)CCC3)ccc1Cn1nc(C)c([N+](=O)[O-])c1C (stereo not drawn) | > 100 µM |
| O=C(NC(C(=O)c1ccccc1)N1CCOCC1)c1cccs1 (stereo not drawn) | > 100 µM |
| Cn1c(=O)[nH]c(=O)c2c1nc(SCC(N)=O)n2Cc1cccc(Br)c1 | 11.1 µM |
| Cn1c(=O)[nH]c(=O)c2c1[nH]c(=S)n2Cc1ccc(Cl)cc1 | 2.1 µM |
| Cc1cc(C2C(C(=O)c3ccc4c(c3)OCCO4)=C(O)C(=O)N2CCCn2ccnc2)co1 (stereo not drawn) | > 100 µM |
| Cc1cccc(C)c1NC(=O)CSc1nnc(CN2CCOCC2)n1C | > 100 µM |
| C/C(Cl)=C/Cn1c(N/N=C(/C)c2ccc([N+](=O)[O-])cc2)nc2c1c(=O)[nH]c(=O)n2C | 17.4 µM |
| CCN(CC)Cc1c(C(=O)N/N=C/c2ccco2)nnn1-c1nonc1N | > 100 µM |
| Cn1c(=O)[nH]c(=O)c2c1nc(N/N=C\c1ccc([N+](=O)[O-])cc1)n2Cc1ccccc1 | 57.9 µM |
| C/C(Cl)=C\CSc1nc2c(c(=O)n(Cc3ccccc3)c(=O)n2C)n1Cc1ccccc1 | 10.9 µM |
| CN1CCN(CC(=O)N2N=C(c3cccs3)CC2c2ccco2)CC1 (stereo not drawn) | > 100 µM |
| COc1ccccc1N1C(=O)CC(N2CCC(C(N)=O)CC2)C1=O (stereo not drawn) | > 100 µM |
| Cc1ccc(C2CC(c3ccccc3)=NN2C(=O)CN2CCOCC2)o1 (stereo not drawn) | > 100 µM |
| Cn1c(=O)[nH]c(=O)c2c1nc(N/N=C\c1cccc([N+](=O)[O-])c1)n2Cc1ccccc1 | > 50 µM |
| Cn1c(=O)n(Cc2ccccc2)c(=O)c2c1nc(SCCO)n2Cc1ccccc1 | 1.72 µM |

| SMILES | IC50 |
| --- | --- |
| CN1CCN(Cc2c3c(c(CN4CCN(C)CC4)c4c2CCC4)CCC3)CC1 | > 100 µM |
| COc1cc(/C=N/NC(=O)CN2CCN(c3ccc(F)cc3)CC2)ccc1O | > 100 µM |
| CCN1CCN(Cc2nc3cc(Cl)ccc3n2Cc2ccccc2)CC1 | > 100 µM |
| O=C(Cn1c2ccccc2n2ncnc12)c1cccs1 | > 100 µM |
| CC1Nc2nc(NC(=O)c3ccc[n+](C)c3)[nH]c(=O)c2N(C(=O)c2ccc[n+](C)c2)C1C (stereo not drawn) | 29.4 µM |
| C=CCn1c(N/N=C\c2cccc([N+](=O)[O-])c2)nc2c1c(=O)[nH]c(=O)n2C | 37.5 µM |
| Cc1cc(C)n(-c2nc3c(c(=O)n(C)c(=O)n3C)n2Cc2ccccc2)n1 | 57.7 µM |
| COc1ccc(CN2CCCN(Cc3ccc(OC)cc3)C2c2cccc(C)n2)cc1 | > 100 µM |
| CSc1nc2c(c(=O)[nH]c(=O)n2C)n1Cc1ccccc1 | 30.1 µM |
| COc1cccc(C2CC(C(F)(F)F)n3ncc(C(=O)Nc4ccc(OC)cc4OC)c3N2)c1 (stereo not drawn) | > 100 µM |
| C/C(Cl)=C\CSc1nc2c(c(=O)[nH]c(=O)n2C)n1CC(O)CCc1ccccc1 (stereo not drawn) | 3.75 µM |
| C/C(=N/Nc1nc2c(c(=O)[nH]c(=O)n2C)n1Cc1ccccc1)c1ccc([N+](=O)[O-])cc1 | 4.6 µM |
| CC(=O)c1c(C)nn2c3ccccc3n(CCN3CCOCC3)c12 | > 100 µM |
| COc1ccc(OC)c(C(O)c2coc3ccc(O)c(CN4CCOCC4)c23)c1 (stereo not drawn) | > 100 µM |
| COc1cccc(N2C(=O)CC(N3CCN(Cc4ccccc4)CC3)C2=O)c1 (stereo not drawn) | > 100 µM |
